Legend:
Stat3 [1] = assay: Co-immunoprecipitation of Stat3-Flag and Stat3-HA (dimerization) in MDA-MB-435s cells; type: cell-based; details: 20 μM, 24 h
Text: (A) Untransfected and untreated MDA-MB-435s cells. (B and E) Cells cotransfected with pCMV-Stat3-Flag and pCMV-Stat3-HA plasmids were immunostained with anti-flag IgG-Rhodamine. (B) Untreated cells and (E) STA-21 treated cells. (C and F) Transfected cells were immunostained with anti-HA IgG-FITC. (C) Untreated cells and (F) STA-21 treated cells. (D and G) Transfected cells were co-immunostained with both anti-HA IgG-FITC and anti-flag IgG-Rhodamine. […] (H) MDA-MB-435s cells were cotransfected with pCMV-Stat3-Flag and pCMV-Stat3-HA plasmids and were exposed to 20 μM STA-21 for 24 h, then cell lysates were immunoprecipitated with anti-HA or anti-Flag antibodies. Immunoprecipitates were resolved on 10% SDS-PAGE and then immunoblotted with anti-HA, anti-Flag or anti-Stat3 antibodies.
The effect of STA-21 on Stat3 in vivo dimerization in breast cancer MDA-MB-435s cells was also investigated. After the exposure to 20 μM STA-21 for 24 h, the cells were harvested and the lysates from the cells expressing Stat3-Flag and Stat3-HA tagged proteins were immunoprecipitated with an anti-Flag or anti-HA antibody, respectively. The immunoprecipitated reaction mixtures were resolved on a 10% SDS-PAGE and immunoblotted with an anti-HA, anti-Flag, or anti-Stat3 antibody, respectively.

Stat3 [2] = assay: Stat3-dependent luciferase reporter (pLucTKS3) in Caov-3 cloned cells; type: cell-based; details: pLucTKS3, 20 μM, 48 h
Description: (§1) FIGS. 2A-2B show the inhibition of Stat3 dependent luciferase activity in cancer cells by STA-21. (A) The clone from Caov-3 carcinoma cells stably transfected with pLucTKS3 Stat3-dependent luciferase reporter was used for initial Sat3 small molecule inhibitor screening. The cloned cells were treated with 20 μM of STA-21 as well as other small molecule compounds for 48 h, then the cells were harvested for luciferase activity analysis. (B) The clones from MDA-MB-435s cells stably transfected with pLucTKS3 Stat3-dependent luciferase reporter or SV40 luciferase reporter were treated with 20 μM of STA-21 for 48 h. Luciferase activity was measured using a Promega luciferase kit according to the manufacturer's instructions. The results were based on the averages and standard deviations from three separate experiments.
(§2) The 100 selected inhibitors were evaluated using a Stat3 luciferase reporter system. Both MDA-MB-435s breast carcinoma cells and Caov-3 ovarian carcinoma cells express constitutively activated Stat3 (Song et al., Int. J. Oncol. 24:1017 (2004); Song et al., Biochem. Biophys. Res. Commun. 314:143 (2004)). […] The selected clones were exposed to Stat3 inhibitors at a final concentration of 20 μM for 48 h and luciferase activity was measured using a Promega Luciferase kit (Madison, Wis.).

MDA-MB-231 = assay: Sub-G1 flow cytometry (apoptotic cells), survival; type: cell-based; details: MDA-MB-231, constitutively activated Stat3, 20 μM or 30 μM, 48 h
Description: (§3) (A) The phosphorylation of Stat3 at Y-705 in different cell lines. (B) The cell lines were treated with STA-21 at concentrations as indicated for 48 h, and then cells were harvested and analyzed for the Sub-G1 profile that indicated apoptotic cells on a FACScan Flow Cytometer (Becton Dickinson, San Jose, Calif.). The results were based on the averages and standard deviations from three separate experiments.
(§4) Since STA-21 inhibited Stat3-dependent luciferase and DNA binding activities, it was next examined whether STA-21 inhibited the growth and survival of breast cancer cells with constitutive Stat3 signaling. […] The Stat3 status of the cell lines was confirmed by measurement of phosphorylated Stat3 (FIG. 4A).

MCF7 = assay: Sub-G1 flow cytometry (apoptotic cells), survival; type: cell-based; details: MCF7, no constitutive Stat3 signaling, 20 μM or 30 μM, 48 h
Description: as §3, §4

[3] = tested on: human skin fibroblasts (HSF); assay: Sub-G1 flow cytometry (apoptotic cells), survival; type: cell-based; details: no constitutive Stat3 signaling, 20 μM or 30 μM, 48 h
Description: as §3, §4

MDA-MB-453 = assay: Sub-G1 flow cytometry (apoptotic cells), survival; type: cell-based; details: MDA-MB-453, no constitutive Stat3 signaling, 20 μM or 30 μM, 48 h
Description: as §3, §4

MDA-MB-435s = assay: Sub-G1 flow cytometry (apoptotic cells), survival; type: cell-based; details: constitutively activated Stat3, 20 μM or 30 μM, 48 h
Description: as §3, §4

MDA-MB-468 = assay: Sub-G1 flow cytometry (apoptotic cells), survival; type: cell-based; details: MDA-MB-468, constitutively activated Stat3, 20 μM or 30 μM, 48 h
Description: as §3, §4

Stat3 [4] = assay: Stat3-dependent luciferase reporter (pLucTKS3) in MDA-MB-435s cloned cells; type: cell-based; details: pLucTKS3, 20 μM, 48 h
Description: as §1, §2

[5] = tested on: breast cancer cells that contain constitutively active Stat3; assay: Cell viability assays using MTT; type: cell-based
Text: as §4

AKT (P-AKT) = assay: Western blot of MDA-MB-468 cell lysates; type: cell-based; details: MDA-MB-468 cells, 48 h
Description: (§5) FIGS. 3A-3B show the inhibition of Stat3 DNA binding activity and Stat3-regulated anti-apoptotic factors by STA-21. (A) MDA-MB-435s cell nuclear extract was incubated with 30 μM STA-21 for 30 min at room temperature, and then incubated with r-^32P-ATP labeled consensus binding sequence for 20 min at room temperature. The reaction mixtures were resolved on 8% polyacrylamide gel. (B) The lysates from MDA-MB-468 cells treated with the indicated concentrations of STA-21 for 48 h were resolved on 10% SDS-PAGE, then immunoblotted with antibodies as indicated.
(§6) It was next examined whether or not STA-21 could reduce Stat3 DNA binding activity using electrophoretic mobility shift assays as reported (Turkson et al., J. Biol. Chem. 276:45443 (2001)). In MDA-MB-435s breast carcinoma cells with constitutive Stat3 signaling, high Stat3 DNA binding activity was observed (FIG. 3A).

ERK (P-ERK) = assay: Western blot of MDA-MB-468 cell lysates; type: cell-based; details: MDA-MB-468 cells, 48 h
Description: as §5, §6

Bcl-XL = assay: Western blot of MDA-MB-468 cell lysates; type: cell-based; details: MDA-MB-468 cells, 20 or 30 μM, 48 h
Description: as §5, §6

Stat1 = target: T1, Stat1 (Homo sapiens, UniProt P42224); assay: Electrophoretic mobility shift assay, MDA-MB-435s cells; type: biochemical
T1 construct: MDA-MB-435s cell nuclear extract was incubated with 30 μM STA-21 for 30 min at room temperature; endogenous in cells; host or cells: MDA-MB-435s nuclear extract
T1 sequence (P42224 1-750): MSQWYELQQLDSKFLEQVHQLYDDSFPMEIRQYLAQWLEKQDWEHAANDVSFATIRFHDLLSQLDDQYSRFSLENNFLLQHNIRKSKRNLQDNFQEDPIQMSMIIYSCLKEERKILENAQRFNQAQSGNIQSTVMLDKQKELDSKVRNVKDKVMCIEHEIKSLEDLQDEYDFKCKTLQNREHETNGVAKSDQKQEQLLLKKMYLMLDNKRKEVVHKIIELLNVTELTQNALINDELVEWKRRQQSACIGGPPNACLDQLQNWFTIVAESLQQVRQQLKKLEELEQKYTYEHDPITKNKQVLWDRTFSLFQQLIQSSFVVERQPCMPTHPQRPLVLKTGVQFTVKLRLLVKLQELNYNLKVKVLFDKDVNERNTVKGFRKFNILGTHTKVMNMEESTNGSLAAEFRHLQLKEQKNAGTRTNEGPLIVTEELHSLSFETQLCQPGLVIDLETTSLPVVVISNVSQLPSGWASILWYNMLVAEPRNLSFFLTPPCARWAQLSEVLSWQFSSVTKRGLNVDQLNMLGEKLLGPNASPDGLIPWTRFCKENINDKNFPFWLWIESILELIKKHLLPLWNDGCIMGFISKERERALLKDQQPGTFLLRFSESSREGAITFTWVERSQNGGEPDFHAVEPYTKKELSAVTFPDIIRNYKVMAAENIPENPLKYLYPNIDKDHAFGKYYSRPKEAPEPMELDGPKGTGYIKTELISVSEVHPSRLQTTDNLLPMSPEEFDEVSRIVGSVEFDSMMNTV

Stat3 [6] = assay: Electrophoretic mobility shift assay, MDA-MB-435s nuclear extract; type: biochemical; details: 30 μM, 30 min
Description: as §5, §6

Stat5 = assay: Electrophoretic mobility shift assay, MDA-MB-435s cells; type: biochemical
SV40 luciferase reporter = SV40 luciferase reporter (control lacking Stat3 binding sites) in MDA-MB-435s clones; type: cell-based; details: reporter without Stat3 DNA binding site, 20 μM, 48 h
Description: as §1, §2

In the case of `C[C@@H]1CC(=O)c2c(ccc3c2C(=O)c2cccc(O)c2C3=O)C1` [STA-21], the “Stat3 dimerization between Stat3-Flag and Stat3-HA proteins” value (Stat3 [1]) is reported as “abrogated Stat3 dimerization”, the “effect on Stat3 induced luciferase activity” value (Stat3 [2]) is reported as “remarkable inhibitory effect” and the “inhibition of survival (accumulation of cells in sub-G1 phase)” value (MDA-MB-231) is reported as “remarkable inhibitory activity”. The “inhibition of survival (sub-G1)” value (MCF7) was “minimal inhibitory effect”, the “inhibition of survival (sub-G1)” value [3] was “minimal inhibitory effect” and the “inhibition of survival (sub-G1)” value (MDA-MB-453) was “minimal inhibitory effect”. The “inhibition of survival (accumulation of cells in sub-G1 phase)” value (MDA-MB-435s) was “remarkable inhibitory activity”, the “inhibition of survival (accumulation of cells in sub-G1 phase)” value (MDA-MB-468) was “remarkable inhibitory activity” and the luciferase activity (Stat3 [4]) was “decreased more than five fold”. The “growth and survival, cell viability (MTT) combined with sub-G1 data” value [5] was “strong potential to inhibit the growth and survival”, the “phosphorylation of AKT (P-AKT)” value (AKT (P-AKT)) was “did not affect the phosphorylation” and the “phosphorylation of ERK (P-ERK)” value (ERK (P-ERK)) was “did not affect the phosphorylation”. The “downstream anti-apoptotic effector Bcl-XL, Western blot” value (Bcl-XL) was “inhibited the downstream anti-apoptotic effector Bcl-XL”, the “Stat1 DNA binding activity” value (Stat1) was “not Stat1 and Stat5 DNA binding activity” and the “Stat3 DNA binding activity” value (Stat3 [6]) was “inhibited Stat3 DNA binding activity”. For the same compound, the “Stat5 DNA binding activity” value (Stat5) was “not Stat1 and Stat5 DNA binding activity” and the “luciferase activity, SV40 luciferase reporter” value (SV40 luciferase reporter) was “did not affect luciferase activity”.
